In PubChem BioAssay AID1552 (Sanford-Burnham Center for Chemical Genomics, 2009):
Activity calls are given as the source filed them. The rule behind the calls is not given here.

Molecular target: Ubiquitin-conjugating enzyme E2 N (Homo sapiens) (UniProt P61088)
Assay: NMR detection of UBE2N ligand binding – biophysical, purified protein (AID 1552)
Settings: NMR binding to purified UBE2N

Ubiquitin-conjugating enzyme E2 N (Homo sapiens), sequence (P61088 whole entry, looked up): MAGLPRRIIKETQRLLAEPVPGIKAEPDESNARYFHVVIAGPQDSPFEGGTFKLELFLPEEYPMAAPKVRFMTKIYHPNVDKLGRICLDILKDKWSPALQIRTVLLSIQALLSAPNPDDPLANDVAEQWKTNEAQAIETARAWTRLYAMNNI

Kd, inactive:
N#Cc1cccc(Cn2nnc(-c3ccccc3)n2)c1 > 4 mM
CCNC(=S)Nc1c(C)n(C)n(-c2ccccc2)c1=O > 4 mM
O=C(Nc1ccon1)c1ccc(Br)o1 > 4 mM
Nc1ccc(Cc2ccncc2)cc1 > 4 mM
O=C(Nc1nnc(-c2ccco2)o1)c1ccc([N+](=O)[O-])o1 > 4 mM
Nc1nc2n(c1C(=O)c1ccccc1)CCC2 > 4 mM
